Reference: patent US20230031406A1, “COMPOUNDS AND COMPOSITIONS FOR TREATING CONDITIONS ASSOCIATED WITH NLRP ACTIVITY” (Novartis AG, priority 2018, published 2023)
Where two headings read alike, the source gives them in different places. Values belong to the compound of their own block, whether it stands above or below them.

System: PMA-differentiated THP-1 cells
Test: IL-1β production in PMA-differentiated THP-1 cells stimulated with gramicidin (hTHP-1 assay containing 2% fetal bovine serum; Procedures 1 and 2)
Type: cell-based, human
Details: 2% fetal bovine serum
Method in brief: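 PMA 20 ng/ml 16-18 h → trypsinise → 50,000 cells/well, RPMI/2% FBS; cpd 1 h (11-pt, 100–0.0017 μM; DMSO 0.37%); gramicidin 5 μM, 2 h; spin; supernatant IL-1β via HTRF.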

[1] = Homo sapiens, THP-1, Table B1, class symbols, read-out: Average IC50 of compounds in hTHP-1 assay: hTHP-1 IC50
[2] = Table B2, class symbols, read-out: hTHP-1 IC50
[3] = Table B1, class symbols, read-out: Average IC50 of compounds in hTHP-1 assay: hTHP-1 IC50
[4] = Homo sapiens, THP-1, Table B4, class symbols, read-out: hTHP-1 IC50
[5] = Homo sapiens, THP-1, Table B2, class symbols, read-out: hTHP-1 IC50
[6] = Homo sapiens, THP-1, Table B3, hTHP-1 assay, class symbols, read-out: IC50

SMILES: CN(C)Cc1ccc(S(N)(=O)=NC(=O)Nc2c3c(nc4c2CCC4)CCC3)cc1 (stereo not drawn) [Compound 130, 4-((dimethylamino)methyl)-N′-((1,2,3,5,6,7-hexahydrodicyclopenta[b,e]pyridin-8-yl)carbamoyl)benzenesulfonimidamide]
- IC50 [1]: 5 to 30 µM

SMILES: CC1CCc2c1nc1c(c2NC(=O)N=S(N)(=O)c2cnn(C(C)C)c2)CCC1 (stereo not drawn) [Compound 171, 1-isopropyl-N′-((3-methyl-1,2,3,5,6,7-hexahydrodicyclopenta[b,e]pyridin-8-yl)carbamoyl)-1H-pyrazole-4-sulfonimidamide]
- IC50 [1]: 1 to 5 µM

SMILES: CC(C)(O)c1ncc(S(N)(=O)=NC(=O)Nc2c3c(nc4c2CCC4F)CCC3)s1 (stereo not drawn) [Compound 183, N′-((3-fluoro-1,2,3,5,6,7-hexahydrodicyclopenta[b,e]pyridin-8-yl)carbamoyl)-2-(2-hydroxypropan-2-yl)thiazole-5-sulfonimidamide]
- IC50 [3]: 5 to 30 µM

SMILES: NS(=O)(=NC(=O)Nc1c2c(nc(C3CC3)c1C1CC1)CCC2)c1nn(C(F)F)cc1F (single isomer, unassigned) [Example 764, (S) or (R)-N′-((2,3-dicyclopropyl-6,7-dihydro-5H-cyclopenta[b]pyridin-4-yl)carbamoyl)-1-(difluoromethyl)-4-fluoro-1H-pyrazole-3-sulfonimidamide]
- IC50 (Table B4, class symbols, read-out: hTHP-1 IC50): 5 to 30 µM

SMILES: Cc1c(C(F)(F)F)nc2c(c1NC(=O)N=S(N)(=O)c1nn(C(C)C)cc1F)CCC2 (stereo not drawn) [Example 734, 4-Fluoro-1-isopropyl-N′-((3-methyl-2-(trifluoromethyl)-6,7-dihydro-5H-cyclopenta[b]pyridin-4-yl)carbamoyl)-1H-pyrazole-3-sulfonimidamide]
- IC50 [4]: 0.2 to 1 µM

SMILES: CCn1ccc(S(N)(=O)=NC(=O)Nc2c3c(nc4c2CC[C@H]4C)CCC3)n1 (stereo partly drawn) [Compound 634, 1-Ethyl-N′-(((R)-3-methyl-1,2,3,5,6,7-hexahydrodicyclopenta[b,e]pyridin-8-yl)carbamoyl)-1H-pyrazole-3-sulfonimidamide]
- IC50 [5]: 0.04 to 0.2 µM

SMILES: CC(C)c1nc2c(cc1NC(=O)N=S(N)(=O)c1cnc(C(C)(C)O)s1)CCC2 (single isomer, unassigned) [Example 701, (R) or (S)-2-(2-Hydroxypropan-2-yl)-N′-((2-isopropyl-6,7-dihydro-5H-cyclopenta[b]pyridin-3-yl)carbamoyl)thiazole-5-sulfonimidamide]
- IC50 [6]: 5 to 30 µM

SMILES: Cc1sc(S(N)(=O)=NC(=O)Nc2c3c(nc4c2CCC4C)CCC3)nc1C(C)(C)O (stereo not drawn) [Compound 104, 4-(2-Hydroxypropan-2-yl)-5-methyl-N′-((3-methyl-1,2,3,5,6,7-hexahydrodicyclopenta[b,e]pyridin-8-yl)carbamoyl)thiazole-2-sulfonimidamide]
- IC50 [3]: 0.2 to 1 µM

SMILES: CO[C@H]1COc2c(S(N)(=O)=NC(=O)Nc3c(C)c(C(F)(F)F)nc4c3CCC4)cnn2C1 (single isomer, unassigned) [Example 655, (S) or (R)-(6R)-6-methoxy-N′-((3-methyl-2-(trifluoromethyl)-6,7-dihydro-5H-cyclopenta[b]pyridin-4-yl)carbamoyl)-6,7-dihydro-5H-pyrazolo[5,1-b][1,3] oxazine-3-sulfonimidamide]
- IC50 (Homo sapiens, THP-1, Table B3, hTHP-1 assay, numeric values, read-out: IC50): > 30 µM

SMILES: CC(C)n1ccc(S(N)(=O)=NC(=O)Nc2c3c(nc4c2CCC4(C)C)CCC3)n1 (single isomer, unassigned) [Compound 126b, (S) or (R)-N′-((3,3-dimethyl-1,2,3,5,6,7-hexahydro-dicyclopenta[b,e]pyridin-8-yl)carbamoyl)-1-isopropyl-1H-pyrazole-3-sulfonimidamide]
- IC50 [3]: 5 to 30 µM

SMILES: CN(C)C(=O)c1ncc(S(N)(=O)=NC(=O)Nc2c3c(nc4c2CCC4(C)C)CCC3)s1 (stereo not drawn) [Example 751, 5-(N′-((3,3-dimethyl-1,2,3,5,6,7-hexahydrodicyclopenta[b,e]pyridin-8-yl)carbamoyl)sulfamidimidoyl)-N,N-dimethyl-thiazole-2-carboxamide]
- IC50 [4]: 1 to 5 µM

SMILES: CC(C)(O)c1sc(S(N)(=O)=NC(=O)Nc2c3c(nc4c2CCC4)CCC3)cc1F (stereo not drawn) [Compound 678, 4-Fluoro-N′-((1,2,3,5,6,7-hexahydrodicyclopenta[b,e]pyridin-8-yl)carbamoyl)-5-(2-hydroxypropan-2-yl)thiophene-2-sulfonimidamide]
- IC50 [5]: 1 to 5 µM

SMILES: NS(=O)(=NC(=O)Nc1c2c(nc(C3CC3)c1C1CC1)CCC2)c1ccn(C(F)F)n1 (single isomer, unassigned) [Example 696, (S) or (R)-N′-((2,3-dicyclopropyl-6,7-dihydro-5H-cyclopenta [b]pyridin-4-yl)carbamoyl)-1-(difluoromethyl)-1H-pyrazole-3-sulfonimidamide]
- IC50 (Table B3, hTHP-1 assay, class symbols, read-out: IC50): 5 to 30 µM

SMILES: CC1(C)CCc2c1nc1c(c2NC(=O)N=[S@](N)(=O)c2cc([C@@](C)(O)CO)cs2)CCC1 [Example 654, (S)-4-((R)-1,2-dihydroxypropan-2-yl)-N′-((3,3-dimethyl-1,2,3,5,6,7-hexahydrodicyclopenta[b,e]pyridin-8-yl)carbamoyl) thiophene-2-sulfonimidamide]
- IC50 [6]: 5 to 30 µM

Results, then the compound that gave them:

- IC50 (Table B1, numeric bounds, read-out: Average IC50 of compounds in hTHP-1 assay: hTHP-1 IC50): > 30 µM
SMILES: CC1CCc2c1nc1c(c2NC(=O)N=S(N)(=O)c2ccc(CN(C)C)cc2)CCC1 (single isomer, unassigned) [Compound 134ab, (S,R) or (S,S)-4-((di-methylamino)methyl)-N′-((3-methyl-1,2,3,5,6,7-hexa-hydrodicyclo-penta[b,e]pyridin-8-yl)carbamoyl)benzene-sulfonimidamide]

- IC50 [2]: 5 to 30 µM
SMILES: Cc1c(C2CC2)nc2c(c1NC(=O)N=S(N)(=O)c1cc(C(C)(C)O)n(-c3ccccc3)n1)CCC2 (single isomer, unassigned) [Compound 651a, (S) or (R)-N′-((2-cyclopropyl-3-methyl-6,7-dihydro-5H-cyclopenta[b]pyridin-4-yl)carbamoyl)-5-(2-hydroxypropan-2-yl)-1-phenyl-1H-pyrazole-3-sulfonimidamide]

- IC50 [3]: 5 to 30 µM
SMILES: CC1CCc2c1nc1c(c2NC(=O)N=S(N)(=O)c2cc(C(C)(C)O)cs2)CCC1C [Compound 131b, (S) and (S,R,R) and (S,S,S)-N′-((3,5-dimethyl-1,2,3,5,6,7-hexahydro-dicyclopenta[b,e]py-ridin-8-yl)carbamoyl)-4-(2-hydroxypropan-2-yl)thiophene-2-sulfonimidamide]

- IC50 [2]: 1 to 5 µM
SMILES: CC(C)(O)c1sc(S(N)(=O)=NC(=O)Nc2c3c(nc4c2CCC4(C)C)CCC3)cc1F (single isomer, unassigned) [Compound 613b, -N′-((3,3-dimethyl-1,2,3,5,6,7-hexahydrodicyclopenta [b,e]pyridin-8-yl)carbamoyl)-4-fluoro-5-(2-hydroxypropan-2-yl)thiophene-2-sulfonimidamide]

- IC50 [3]: 1 to 5 µM
SMILES: CC(C)(O)c1csc(S(N)(=O)=NC(=O)Nc2c3c(nc4c2CCC4(C)C)CCC3)c1 (single isomer, unassigned) [Compound 127a, (S) or (R)-N′-((3,3-dimethyl-1,2,3,5,6,7-hexahydro-dicyclopenta[b,e]pyridin-8-yl)carbamoyl)-4-(2-hydroxypropan-2-yl)thiophene-2-sulfonimidamide]

- IC50 [2]: 0.04 to 0.2 µM
SMILES: Cc1c(C2CC2)nc2c(c1NC(=O)N=S(N)(=O)c1nc(C(C)(C)O)cs1)CCC2 (single isomer, unassigned) [Compound 626b, (R) or (S)-N′-((2-cyclopropyl-3-methyl-6,7-dihydro-5H-cyclopenta[b]pyridin-4-yl)carbamoyl)-4-(2-hydroxypropan-2-yl)thiazole-2-sulfonimidamide]

- IC50 [1]: 0.2 to 1 µM
SMILES: NS(=O)(=NC(=O)Nc1c2c(nc3c1CCC31CC1)CCC2)c1ccn(C(F)F)n1 (single isomer, unassigned) [Compound 180a, (R) or (S)-1-(difluoromethyl)-N′-((1′,5′,6′,7′-tetrahydro-2′H-spiro[cyclopropane-1,3′-dicyclopenta[b,e]pyridin]-8′-yl)carbamoyl)-1H-pyrazole-3-sulfonimidamide]

- IC50 (Homo sapiens, THP-1, Table B1, numeric bounds, read-out: Average IC50 of compounds in hTHP-1 assay: hTHP-1 IC50): > 30 µM
SMILES: Cc1nc(C(C)(C)O)ccc1S(N)(=O)=NC(=O)Nc1c2c(nc3c1CCC3)CCC2 (single isomer, unassigned) [Compound 157a, (S) or (R)-N′-((1,2,3,5,6,7-hexahydrodicyclo-penta[b,e]pyridin-8-yl)carbamoyl)-6-(2-hydroxypropan-2-yl)-2-methylpyridine-3-sulfonimidamide]

- IC50 [3]: 5 to 30 µM
SMILES: Cc1sc(S(N)(=O)=NC(=O)Nc2c3c(nc4c2CCC4(C)C)CCC3)cc1C(C)(C)O (single isomer, unassigned) [Compound 169a, (S) or (R)-N′-((3,3-dimethyl-1,2,3,5,6,7-hexahydro-dicyclopenta[b,e]pyridin-8-yl)carbamoyl)-4-(2-hydroxypropan-2-yl)-5-methylthiophene-2-sulfonimidamide]

- IC50 (Homo sapiens, THP-1, Table B2, numeric bounds, read-out: hTHP-1 IC50): > 30 µM
SMILES: Cc1c(C(C)C)nc2c(c1NC(=O)N=S(N)(=O)c1ccn(C(C)C)n1)CCC2 (single isomer, unassigned) [Compound 644a, (S) or (R)-1-Isopropyl-N′-((2-isopropyl-3-methyl-6,7-dihydro-5H-cyclopenta[b]pyridin-4-yl)carbamoyl)-1H-pyrazole-3-sulfonimidamide]
